The test system of test [1] is PC-12. Kind of test: Neuroprotective activity against etoposide-induced apoptosis in rat PC12 cells assessed as cell viability at 3 uM preincubated for 4 hrs followed by etoposide addition measured after 48 hrs by prestoblue staining based fluorescence assay (reference value: 52 %). As to conditions: read-out: Activity. The class given is functional.
The target in test [2] is T1, Peroxisome proliferator-activated receptor delta (Homo sapiens) (UniProt Q03181).
T1 sequence (whole entry): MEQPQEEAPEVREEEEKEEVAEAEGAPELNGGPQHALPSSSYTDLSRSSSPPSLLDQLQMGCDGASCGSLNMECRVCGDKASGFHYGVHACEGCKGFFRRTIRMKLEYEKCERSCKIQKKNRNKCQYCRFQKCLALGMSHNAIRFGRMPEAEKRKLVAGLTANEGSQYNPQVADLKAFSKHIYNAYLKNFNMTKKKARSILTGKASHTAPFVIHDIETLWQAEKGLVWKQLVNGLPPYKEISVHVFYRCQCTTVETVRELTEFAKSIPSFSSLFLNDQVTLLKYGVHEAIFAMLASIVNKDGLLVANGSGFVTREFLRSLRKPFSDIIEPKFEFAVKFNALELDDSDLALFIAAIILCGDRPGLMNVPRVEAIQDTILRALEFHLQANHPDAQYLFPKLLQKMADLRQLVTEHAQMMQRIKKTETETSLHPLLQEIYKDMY
Kind of test: Agonist activity at PPAR delta (unknown origin) transfected in HEK293 cells at 1 uM after 24 hrs by dual-luciferase reporter gene assay. The class given is cell-based. On the technique in general: A reporter such as luciferase makes a cellular process visible.

Test [3] addresses T2, Peroxisome proliferator-activated receptor alpha (Homo sapiens) (UniProt Q07869).
T2 sequence (whole entry): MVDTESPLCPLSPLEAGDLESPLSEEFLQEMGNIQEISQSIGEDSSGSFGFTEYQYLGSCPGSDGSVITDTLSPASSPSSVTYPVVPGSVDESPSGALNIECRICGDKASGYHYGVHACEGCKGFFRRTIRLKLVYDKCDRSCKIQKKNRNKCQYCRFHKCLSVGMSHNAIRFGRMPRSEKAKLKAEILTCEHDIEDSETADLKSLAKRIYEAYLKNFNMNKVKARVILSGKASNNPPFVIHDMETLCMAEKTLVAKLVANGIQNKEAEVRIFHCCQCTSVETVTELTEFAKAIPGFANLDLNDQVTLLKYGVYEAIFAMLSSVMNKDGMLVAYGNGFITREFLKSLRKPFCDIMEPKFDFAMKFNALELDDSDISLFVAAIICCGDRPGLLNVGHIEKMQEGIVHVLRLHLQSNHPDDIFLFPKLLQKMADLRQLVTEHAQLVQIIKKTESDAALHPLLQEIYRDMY
Kind of test: Agonist activity at PPAR alpha (unknown origin) transfected in HEK293 cells at 1 uM after 24 hrs by dual-luciferase reporter gene assay. The class given is cell-based.

Test [4] concerns the target T1, Peroxisome proliferator-activated receptor delta (Homo sapiens). Kind of test: Agonist activity at PPAR delta (unknown origin) transfected in HEK293 cells at 0.001 to 1000 uM after 24 hrs by pGL3-Luciferase reporter gene assay. The class given is cell-based.
Test [5] deals with T3, Peroxisome proliferator-activated receptor gamma (Homo sapiens) (UniProt P37231).
T3 sequence (whole entry): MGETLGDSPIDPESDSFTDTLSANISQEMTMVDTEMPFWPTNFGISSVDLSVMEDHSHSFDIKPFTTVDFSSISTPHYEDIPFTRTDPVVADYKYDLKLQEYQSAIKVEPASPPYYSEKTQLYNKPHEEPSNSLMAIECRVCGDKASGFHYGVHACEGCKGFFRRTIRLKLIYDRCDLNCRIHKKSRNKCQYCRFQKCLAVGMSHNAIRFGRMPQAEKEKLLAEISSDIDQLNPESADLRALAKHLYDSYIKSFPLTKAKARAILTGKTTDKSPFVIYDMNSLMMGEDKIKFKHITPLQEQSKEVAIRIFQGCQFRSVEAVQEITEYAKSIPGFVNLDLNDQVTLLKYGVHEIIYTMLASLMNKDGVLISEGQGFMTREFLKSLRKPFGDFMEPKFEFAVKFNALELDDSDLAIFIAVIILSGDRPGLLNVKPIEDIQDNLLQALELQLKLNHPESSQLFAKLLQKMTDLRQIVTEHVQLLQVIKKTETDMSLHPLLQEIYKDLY
Description: Agonist activity at PPAR gamma (unknown origin) transfected in HEK293 cells at 0.1 to 100 uM after 24 hrs by DR-1 luciferase reporter gene assay. The class given is cell-based.

The target of test [6] is T1, Peroxisome proliferator-activated receptor delta (Homo sapiens). Description: Agonist activity at PPAR delta (unknown origin) transfected in HEK293 cells at 0.001 to 1000 uM after 24 hrs by DR-4 luciferase reporter gene assay. The class given is cell-based.
Test [7] has as its target T4, Peroxisome proliferator-activated receptor delta (Homo sapiens, UniProt Q03181).
T4 sequence (Q03181 whole entry): T1 sequence (whole entry)
Kind of test: Agonist activity at PPAR delta (unknown origin) transfected in HEK293 cells after 24 hrs by dual-luciferase reporter gene assay. The class given is cell-based.

For test [8], the target named is T3, Peroxisome proliferator-activated receptor gamma (Homo sapiens). Description: Agonist activity at PPAR gamma (unknown origin) transfected in HEK293 cells at 1 uM after 24 hrs by dual-luciferase reporter gene assay. The class given is cell-based.
Test [9] deals with PC-12. Kind of test: Neuroprotective activity against serum starvation-induced apoptosis in rat PC12 cells assessed as cell survival at 1 to 30 uM after 24 hrs by prestoblue staining based fluorescence assay (reference value: 55%). The class given is functional.
The test system of test [10] is PC-12. Kind of test: Neuroprotective activity against etoposide-induced apoptosis in rat PC12 cells assessed as cell viability at 1 uM preincubated for 4 hrs followed by etoposide addition measured after 48 hrs by prestoblue staining based fluorescence assay. The class given is functional.
Test [11] has as its target T4, Peroxisome proliferator-activated receptor delta. Description: Agonist activity at PPAR delta (unknown origin).
Test [12] has the same target. Description: Agonist activity at human PPAR delta by cell based cotransfection assay.
The species named for a further test is Homo sapiens. Kind of test: Ratio of EC50 for human PPAR alpha to EC50 for human PPAR delta.
Test [13] concerns the target PPAR delta/gamma (Homo sapiens) (UniProt P37231+Q03181). Kind of test: Ratio of EC50 for human PPAR gamma to EC50 for human PPAR delta.

From ChEMBL document CHEMBL3784947, “Pharmacophore elucidation of phosphoiodyn A - Potent and selective peroxisome proliferator-activated receptor β/δ agonists with neuroprotective activity” (Bioorg Med Chem Lett, 2016) come the findings set out here.

Molecules are shown by their SMILES. Active and inactive are the calls of the source. The calls are words filed in the database; no cut-off is given here.

Consider `CCOP(=O)(O)CCO`, for which, in the test on PC-12 [1], the viability at 3 µM is 110%. Moreover, the result (in test [2]; in the test with PC-12 [10]) was Active. In addition, the result in test [3], in test [4], in [5], in test [6] and in [8] was inactive. Further, a half-maximal effect in test [7] (EC50) was put at 78 nM. The Survival with PC-12 [9] came to 77%.

Consider `C[C@@H]1CN(c2ccc(OC(F)(F)F)cc2)C[C@H](C)N1S(=O)(=O)c1cccc2c1C[C@@H](C(=O)O)C2`, for which a half-maximal response in test [11] (EC50) required 1.5 nM.

Consider `CCOP(=O)(CCO)OCC`, for which, in the test with PC-12 [1], the viability at 3 µM is 116%. Moreover, the outcome (in test [2]; in the test with PC-12 [10]) was Active. In addition, the outcome in test [3], in [4], in [5], in [6] and in [8] was inactive. Besides, the response in test [7] was half-maximal at 112 nM (EC50). In the test on PC-12 [9], the Survival worked out at 78%.

Take `CN(CCOc1ccc(CC2SC(=O)NC2=O)cc1)c1ccccn1` (stereo not given): in test [8], the outcome was Active.

For the compound `Cc1cccc(Nc2cc(Cl)nc(SCC(=O)O)n2)c1C`, the outcome in [3] was Active.

Turning to `O=P(O)(OCO)OCCC#CC#CCCCCCC/C=C/I`, the EC50 – broadly, the concentration that produces a half-maximal response – is above 10 nM in test [12] and above 10000 nM in [7].

`CCOC(=O)CCO`: the result in test [2], in [3], in test [5] and in test [8] was Active. The EC50 in test [7] is above 1000 nM.

For `O=P(O)(O)CCO`, the outcome in test [3], in test [5] and in test [8] was inactive. In addition, the EC50 in [7] is above 100000 nM.

On to `CCOC(=O)Nc1ccc(NCc2ccc(F)cc2)nc1N` [FLUPIRTINE], for which the viability at 3 µM with PC-12 [1] came to 80%. Also, in the test on PC-12 [9], the Survival was 82%.

On to `O=P(O)(CCO)OCCC#CC#CCCCCCC/C=C/I`, for which the results for the EC50 in test [12] and in test [7] were 23.7 nM and 24 nM, respectively. Also, the Ratio EC50 (in the test filed under Homo sapiens; in test [13]) was above 200 throughout.
